Data reported in BigSolDB 2.1.

O=c1[nH]c(=O)n([C@H]2C[C@H](O)[C@@H](CO)O2)cc1I
in water
Details | solubility (mole fraction)
302.2 K | 0.00013
312.6 K | 0.00021
317.8 K | 0.00026
321.9 K | 0.00039
323 K | 0.00027
326.2 K | 0.00041
332 K | 0.00051
336 K | 0.00047
343.1 K | 0.00076
348.6 K | 0.00089
349.8 K | 0.00102

NC(=O)c1c(F)c(F)c(F)c(F)c1F
in water
Details | solubility (mole fraction)
291.8 K | 0.00018
297.5 K | 0.00026
303.3 K | 0.00034
310.3 K | 0.0006

O=C(Nc1c(F)c(F)c(F)c(F)c1F)C(=O)Nc1c(F)c(F)c(F)c(F)c1F
Details | solubility (mole fraction)
in 2-butanone, 284.2 K | 0.00793
in 2-butanone, 287.1 K | 0.00854
in 2-butanone, 289.4 K | 0.00897
in 2-butanone, 293.4 K | 0.00984
in 2-butanone, 303.3 K | 0.0126
in 2-butanone, 314.7 K | 0.0168
in 2-butanone, 323.9 K | 0.0209
in 2-butanone, 327.2 K | 0.023
in 2-butanone, 331.1 K | 0.025
in 2-butanone, 333.4 K | 0.0271
in 2-butanone, 336.9 K | 0.029
in ethyl acetate, 281.1 K | 0.00822
in ethyl acetate, 285.6 K | 0.00934
in ethyl acetate, 291.9 K | 0.0105
in ethyl acetate, 293.5 K | 0.0116
in ethyl acetate, 303.7 K | 0.0138
in ethyl acetate, 310.9 K | 0.017
in ethyl acetate, 321.4 K | 0.0206
in ethyl acetate, 325.1 K | 0.0229
in ethyl acetate, 326.7 K | 0.0251
in ethyl acetate, 332.2 K | 0.0274
in ethyl acetate, 334.9 K | 0.0295
